Measured values from US12642851B2, “Self-assembling nanoparticles” (Barinthus Biotherapeutics North America, Inc., priority 2022, dated 2026).
Read-outs that look alike come from different tables or passages of the source.

Test system: mTOR (phospho-S6, pS6)
Assay: In vitro mTOR inhibition by phospho-S6 (pS6) assay in LPS-stimulated splenocytes
Format: cell-based, C57BL/6 mice
Conditions: for IC50: read-out: Approximate IC50
[1] = Mus musculus, Splenocyte, half maximal inhibitory concentration of pS6 inhibition in IA/IE+ cells, splenocytes, phospho-S6 assay
[2] = half maximal inhibitory concentration of pS6 inhibition in IA/IE+ cells, splenocytes, phospho-S6 assay

Compound	IC50 [1] [nM]	IC50 [2] [nM]	also measured
Everolimus -N3-DBCO-COOH [Compound 142]	–	16	fold reduction in IC50 potency (pS6) relative to Everolimus (splenocytes, pS6 assay): 16 fold
Torin-1-C3-COOH [Compound 123]	–	> 500	–
CO[C@H]1C[C@@H]2CC[C@@H](C)[C@@](O)(O2)C(=O)C(=O)N2CCCC[C@H]2C(=O)O[C@H]([C@H](C)C[C@@H]2CC[C@@H](OCCO)[C@H](OC)C2)CC(=O)[C@H](C)/C=C(\C)[C@@H](O)[C@@H](OC)C(=O)[C@H](C)C[C@H](C)/C=C/C=C/C=C/1C [Everolimus]	–	–	IC50 (Mus musculus, Splenocyte): 1 nM
OH-PEG24-VZQLQPFPQPELPYPQPQLPYPQPQPFR-SPVZX(DBCO-Ahx-ZV-Everolimus) [Compound 146]	–	74	pS6 IC50 compared to matched peptide antigen conjugates using an amide based linkage (Compound 143 and 145) (splenocytes, pS6 assay): more potent IC50
CC(C)[C@H](N)C(=O)N[C@@H](CCCNC(N)=O)C(=O)N1CCN(c2ccc(-n3c(=O)ccc4cnc5ccc(-c6cnc7ccccc7c6)cc5c43)cc2C(F)(F)F)CC1 [Compound 105, Torin-1-ZV]	210	–	pS6 inhibition IC50 relative to Torin-1-piperazine (Compound 98) (splenocytes, pS6 assay): approximately equivalent
OH-PEG24-VZQLQPFPQPELPYPQPQLPYPQPQPFR-SPVZ(X-DBCO)-Ahx-WWK(ZV-Everolimus)WW [Compound 144]	–	13	pS6 IC50 compared to matched peptide antigen conjugates using an amide based linkage (Compound 143 and 145) (splenocytes, pS6 assay): more potent IC50

The next lines start with results.

IC50 [1] [nM]	IC50 [2] [nM]	Compound	also measured
1	–	CO[C@H]1CCOCC(=O)C(=O)N2CCCC[C@H]2C(=O)O[C@H]([C@H](C)C[C@@H]2CC[C@@H](OCCN=[N+]=[N-])[C@H](OC)C2)CC(=O)[C@H](C)/C=C(\C)[C@@H](O)[C@@H](OC)C(=O)[C@@H](C)C[C@H](C)/C=C/C=C/C=C/1C [Compound 109, Everolimus-azide]	impact on IC50 (pS6) of conversion from Everolimus (splenocytes, pS6 assay): no impact on IC50
1	–	CO[C@H]1C[C@@H]2CC[C@@H](C)[C@@](O)(O2)C(=O)C(=O)N2CCCC[C@H]2C(=O)O[C@H]([C@H](C)C[C@@H]2CC[C@@H](O)[C@H](OC)C2)CC(=O)[C@H](C)/C=C(\C)[C@@H](O)[C@@H](OC)C(=O)[C@H](C)C[C@H](C)/C=C/C=C/C=C/1C [Rapamycin]	–
30	–	CCCCNC(=O)[C@H](CCCNC(N)=O)NC(=O)[C@@H](NC(=O)CO[C@@H]1CC[C@@H](C[C@@H](C)[C@@H]2CC(=O)[C@H](C)/C=C(\C)[C@@H](O)[C@@H](OC)C(=O)[C@H](C)C[C@H](C)/C=C/C=C/C=C(\C)[C@@H](OC)CC3CC[C@@H](C)[C@@](O)(O3)C(=O)C(=O)N3CCCCC3C(=O)O2)C[C@H]1OC)C(C)C (stereo partly drawn) [Compound 141, Everolimus -Val-Cit-nBu]	fold reduction in IC50 potency (pS6) relative to Everolimus (splenocytes, pS6 assay): 30 fold
150	–	CC(C)[C@H](N)C(=O)N[C@@H](CCCNC(N)=O)C(=O)NCCC(=O)N1Cc2ccccc2C#Cc2ccccc21 [Compound 124, Val-Cit-DBCO]	–
–	150	OH-PEG24-VZQLQPFPQPELPYPQPQLPYPQPQPFR-SPVZ-(X DBCO)-Ahx-WWK(Everolimus)WW [Compound 143]	–
10	–	CO[C@H]1CCOCC(=O)C(=O)N2CCCC[C@H]2C(=O)O[C@H]([C@H](C)C[C@@H]2CC[C@@H](OCCN)[C@H](OC)C2)CC(=O)[C@H](C)/C=C(\C)[C@@H](O)[C@@H](OC)C(=O)[C@@H](C)C[C@H](C)/C=C/C=C/C=C/1C [Compound 108, Everolimus-amine]	fold reduction in IC50 potency (pS6) relative to Everolimus (splenocytes, pS6 assay): 10 fold
–	185	OH-PEG24-VZQLQPFPQPELPYPQPQLPYPQPQPFR-SPVZK(DBCO-N3)-Everolimus [Compound 145]	–
